These results are taken from patent US20250000896A1, “Xenon Gas for Use in the Treatment of Gliomas” (Universität Heidelberg, priority 2021, published 2025).

What all share (assay type): cell-based
The test system of one assay is U87MG glioma cells. The assay is described as follows: Colony formation assay (CFA) with U87MG glioma cells after irradiation. The conditions noted are these: for mean survival fraction in relation to the control group: 50% Xe for 60 min after irradiation and/or 25 μM memantine, colonies counted after 14 days. The text has this:
(§1) In radiobiological research, colony formation assay (CFA) represents an established method to evaluate the in-vitro-effects of radiation treatment (RT) alone or in combination with additional substances on cell survival and reproduction capability. To provide a method for investigation of modulating properties mediated by gaseous agents in combination with ionizing radiation treatment, a system to combine CFA with gas exposure before, during or after radiation treatment was designed. Subsequently CFA were performed with established glioma cell lines U87MG and U251, as well as cervical cancer-derived cell line HeLa investigating the effect of xenon gas exposure on cell survival after radiation treatment. Expression of AMPAR and NMDAR subunits was tested by immunofluorescence staining. In vitro colony formation assay (CFA) comparing surviving fractions of irradiated U87MG cells and U251 cells exposed to 50% Xe and/or treated with 25 μM of memantine to a control group were performed. Additionally, a CFA comparing surviving fractions of irradiated HeLa cells exposed to 50% Xe to a control group was implemented. CFA were carried out in triplets of T25-flasks for each irradiation dose of 0, 2, 4, 6 and 8 Gy in three (U87MG and HeLa) or four (U251) independent repetitions. U87MG and HeLa cells were cultured in Dulbecco's modified eagle's medium (DMEM; U87: Biochrom AG, Berlin, Germany; HeLa: Thermo Fisher Scientific, Waltham, US) and U251 cells were cultured in Gibco Roswell Park Memorial Institute (RPMI) 1640 medium+GlutaMAX™ (Thermo Fisher Scientific, Waltham, US). Cells were stored in an incubator (ambient air with additional 5% CO2) and split regularly before confluence. In preparation of CFA, cells were dissolved, counted, and distributed into T25-flasks starting with 1000 cells (U87MG), 100 cells (U251), or 200 cells (HeLa) per flask for non-irradiated groups increasing the cell count with irradiation dose to 1000, 2000, 5000, and 10.000 cells (U87MG), 200, 600, 2000, and 5000 cells (U251), or 400, 800, 2000, and 4000 cells (HeLa), respectively. Cells were allowed to attach for 14 to 16 h (U87MG), for 4 h (U251), or for 5.5 h (HeLa) and 108 μl of either memantine-hydrochloride 0.25 mg/ml (Sigma-Aldrich Corp., St. Louis, USA) or distilled water as placebo were added 60 min at U87MG and 90 min at U251 and HeLa prior to irradiation, resulting in 25 μM memantine-hydrochloride per flask. For irradiation, 15 flasks (5 triplets, each for 0, 2, 4, 6, 8 Gy) were placed alongside the margin of eight acrylic glass plates (thickness 1.0 cm) with two plates further added on top to balance secondary electrons. Vertical position to the gantry of a conventional linear accelerator (Elekta Synergy, Elekta AB, Stockholm, Sweden) was allocated by wall-mounted lasers marking the center of the flasks' caps membrane, horizontal position was validated by opening the linear accelerator's light field (32.0×32.0 cm) and by positioning the plates centrally inside the field. The triplet from the 0 Gy dose-group was removed immediately after placement (sham-irradiation) and exchanged with dummy T25-flasks filled with water. After delivery of 181.2 MU of 6 MeV photons, equivalent to an effective dose of 2 Gy, the 2 Gy-triplet was removed and replaced by dummy flasks. This process was repeated until a cumulative dose of 8 Gy for the last triplet was reached. Gas exposure was performed after the radiation treatment described above. The flasks were exposed to a preformed gas mixture for 60 minutes containing either 75% Xe, 20% O2 and 5% CO2 for the xenon group or a mixture with the 75% Xe-proportion replaced by nitrogen (N2) for the memantine group and the control group. […] After exposure, the flasks membrane caps were sealed with custom PVC-plugs and stored in a heat cabinet for 24 hours. Finally, the membrane caps' plugs were removed and the flasks were transferred into the 5% CO2-incubator remaining untouched for 13 days (U87MG), 10 days (U251), or 10 days (HeLa). […]

Another assay has as its system U251 glioma cells. The assay is described as follows: Colony formation assay (CFA) with U251 glioma cells after irradiation. The conditions noted are these: 50% Xe for 60 min after irradiation and/or 25 μM memantine, colonies counted after 11 days.
Description: as §1

Assay [1] has as its system HeLa cervical cancer cells. Briefly: Colony formation assay (CFA) with HeLa cervical cancer cells after irradiation. The conditions noted are these: for mean survival fraction in relation to the control group: 50% Xe for 60 min after irradiation, colonies counted after 11 days. The text has this:
In radiobiological research, colony formation assay (CFA) represents an established method to evaluate the in-vitro-effects of radiation treatment (RT) alone or in combination with additional substances on cell survival and reproduction capability.
To provide a method for investigation of modulating properties mediated by gaseous agents in combination with ionizing radiation treatment, a system to combine CFA with gas exposure before, during or after radiation treatment was designed. Subsequently CFA were performed with established glioma cell lines U87MG and U251, as well as cervical cancer-derived cell line HeLa investigating the effect of xenon gas exposure on cell survival after radiation treatment. Expression of AMPAR and NMDAR subunits was tested by immunofluorescence staining.
In vitro colony formation assay (CFA) comparing surviving fractions of irradiated U87MG cells and U251 cells exposed to 50% Xe and/or treated with 25 μM of memantine to a control group were performed. Additionally, a CFA comparing surviving fractions of irradiated HeLa cells exposed to 50% Xe to a control group was implemented. CFA were carried out in triplets of T25-flasks for each irradiation dose of 0, 2, 4, 6 and 8 Gy in three (U87MG and HeLa) or four (U251) independent repetitions.
U87MG and HeLa cells were cultured in Dulbecco's modified eagle's medium (DMEM; U87: Biochrom AG, Berlin, Germany; HeLa: Thermo Fisher Scientific, Waltham, US) and U251 cells were cultured in Gibco Roswell Park Memorial Institute (RPMI) 1640 medium+GlutaMAX™ (Thermo Fisher Scientific, Waltham, US). Cells were stored in an incubator (ambient air with additional 5% CO2) and split regularly before confluence. In preparation of CFA, cells were dissolved, counted, and distributed into T25-flasks starting with 1000 cells (U87MG), 100 cells (U251), or 200 cells (HeLa) per flask for non-irradiated groups increasing the cell count with irradiation dose to 1000, 2000, 5000, and 10.000 cells (U87MG), 200, 600, 2000, and 5000 cells (U251), or 400, 800, 2000, and 4000 cells (HeLa), respectively. Cells were allowed to attach for 14 to 16 h (U87MG), for 4 h (U251), or for 5.5 h (HeLa) and 108 μl of either memantine-hydrochloride 0.25 mg/ml (Sigma-Aldrich Corp., St. Louis, USA) or distilled water as placebo were added 60 min at U87MG and 90 min at U251 and HeLa prior to irradiation, resulting in 25 μM memantine-hydrochloride per flask.
For irradiation, 15 flasks (5 triplets, each for 0, 2, 4, 6, 8 Gy) were placed alongside the margin of eight acrylic glass plates (thickness 1.0 cm) with two plates further added on top to balance secondary electrons. Vertical position to the gantry of a conventional linear accelerator (Elekta Synergy, Elekta AB, Stockholm, Sweden) was allocated by wall-mounted lasers marking the center of the flasks' caps membrane, horizontal position was validated by opening the linear accelerator's light field (32.0×32.0 cm) and by positioning the plates centrally inside the field. The triplet from the 0 Gy dose-group was removed immediately after placement (sham-irradiation) and exchanged with dummy T25-flasks filled with water. After delivery of 181.2 MU of 6 MeV photons, equivalent to an effective dose of 2 Gy, the 2 Gy-triplet was removed and replaced by dummy flasks. This process was repeated until a cumulative dose of 8 Gy for the last triplet was reached.
Gas exposure was performed after the radiation treatment described above. The flasks were exposed to a preformed gas mixture for 60 minutes containing either 75% Xe, 20% O2 and 5% CO2 for the xenon group or a mixture with the 75% Xe-proportion replaced by nitrogen (N2) for the memantine group and the control group. […] After exposure, the flasks membrane caps were sealed with custom PVC-plugs and stored in a heat cabinet for 24 hours. Finally, the membrane caps' plugs were removed and the flasks were transferred into the 5% CO2-incubator remaining untouched for 13 days (U87MG), 10 days (U251), or 10 days (HeLa). […]

Molecules are shown by their SMILES.

Take `CC12CC3CC(C)(C1)CC(N)(C3)C2` [memantine]: in the assay with U87MG glioma cells (25 μM memantine, 0 to 8 Gy, t-test), the “difference in survival to the groups without added memantine” value is listed as “no significant differences”. In addition, the “mean survival fraction in relation to the control group” value (“mean survival fraction in relation” for short) in the assay with U87MG glioma cells (radiation dose 0 Gy (sham)) stood at 93.8%; with U87MG glioma cells (radiation dose 2 Gy) it was 46.8%; with U87MG glioma cells (radiation dose 4 Gy), 28.5%; in the assay with U87MG glioma cells (radiation dose 6 Gy), 15.9%; with U87MG glioma cells (radiation dose 8 Gy), 8.0%; in the assay with U251 glioma cells (radiation dose 0 Gy (sham)), 72.3%. Moreover, the “mean survival fraction in relation” value came out at 34.1% in the assay with U251 glioma cells (radiation dose 2 Gy), 11.9% with U251 glioma cells (radiation dose 4 Gy), 3.8% with U251 glioma cells (radiation dose 6 Gy) and 1.0% with U251 glioma cells (radiation dose 8 Gy).
Regarding `[Xe]` [xenon], the “mean survival fraction in relation” value in the assay on U87MG glioma cells (radiation dose 0 Gy (sham)) amounted to 94.2%; with U87MG glioma cells (radiation dose 2 Gy), 41.5%; in the assay with U87MG glioma cells (radiation dose 4 Gy), 25.0%; in the assay with U87MG glioma cells (radiation dose 6 Gy), 10.3%; in the assay with U87MG glioma cells (radiation dose 8 Gy), 4.7%; with U251 glioma cells (radiation dose 0 Gy (sham)) it was 78.7%. Also, the “mean survival fraction in relation” value in the assay with U251 glioma cells (radiation dose 2 Gy) amounted to 37.5%; in the assay with U251 glioma cells (radiation dose 4 Gy), 14.6%; with U251 glioma cells (radiation dose 6 Gy), 4.2%; with U251 glioma cells (radiation dose 8 Gy), 1.0%; in assay [1] (radiation dose 0 Gy (sham)), 114.7%; in assay [1] (radiation dose 2 Gy), 71.1%. Also, the “mean survival fraction in relation” value in assay [1] (radiation dose 4 Gy) stood at 23.5%; in assay [1] (radiation dose 6 Gy), 7.1%; in assay [1] (radiation dose 8 Gy), 2.0%. The “impact of xenon exposure after irradiation on HeLa cell survival” value in assay [1] (50% Xe after irradiation, except at a very high radiation dose level) is recorded as “no impact”.
